Data: patent publication US8343964B2, “Indolic derivatives, their preparation processes and their uses in particular as antibacterials” (Universite Joseph Fourier, priority 2007, dated 2013)
Values after ≈ are worked out from the molar mass of the structure shown. Read-outs that look alike come from different tables or passages of the source.

Assays:
[1] = test system: S. aureus ITS-1199B (overexpression of the efflux pump NorA); format: cell-based, Staphylococcus aureus; settings: resistant strain R NorA; for MIC (μg/ml) of compound in the presence of ciprofloxacin at 4 μg/ml (c/4): ciprofloxacin 4 μg/ml (c/4); for MIC (μg/ml) of compound in the presence of ciprofloxacin at 8 μg/ml (c/2): ciprofloxacin 8 μg/ml (c/2)
Method: (§1) The two strains used are Staphylococcus aureus (ATCC 25923, sensitive Gram-positive strain) denoted S, and S. aureus ITS-1199 (without efflux), as well as its derivative S. aureus ITS-1199B (Kaatz, G. W., Seo, S. M., Antimicrob. Agents Chemother., 1995, 39, 2650-2655) having a resistance to the fluoroquinolones due to the overexpression of the efflux pump NorA and denoted R NorA. The bacteria are cultured at 37° C. in Mueller-Hinton (MH, Bio Rad) or Luria-Bertani (LB, Difco) Medium.
The experiences are carried out as above, but using the resistant strain, and looking at the effect of the mixture of the molecule to be tested and the antibiotic to which the bacterium is resistant. Thus, the method of a series of dilutions in Mueller-Hinton medium is used, also starting from a molecule concentration of 100 or 128 μg/ml.

[2] = In vitro cytotoxicity on HCT116 cells; format: cell-based; settings: human, concentration of 10^−5 M, read-out: Average cytotoxicity (% inhibition), HCT116 cells
Method: (§2) The in vitro cytotoxicity results, measured at a concentration of 10^−5 M, are described below. The cytotoxicity was measured on 5 cell lines—KB (human mouth carcinoma), MCF7 (breast carcinoma) and MCF7R (resistant strain), Vero (monkey kidney) and HCT116 (human colon tumour).

[3] = test system: Staphylococcus aureus (ATCC 25923, sensitive Gram-positive strain); assay: Determination of the antibacterial activity: MIC in liquid Mueller-Hinton medium (intrinsic antibacterial activity); format: cell-based
Method: as §1
The experiments described hereafter are carried out following the recommendations of the Comité de l'Antibiogramme de la Société Française de Microbiologic (http://www.sfm.asso.fr/nouv/general.php See also Courvalin, P., Goldstein, F., Philippon, A., Sirot J. L'antibiogramme, 1985, M.P.C.-Videom editor). The antibacterial activity of the molecules was determined in liquid medium using a Biomek 2000 robot (Beckman) and micro-titration plates. The final volume in each well is 200 μl. A maximum volume of 5 μl of a solution of the molecule in DMSO is added to each well containing 10^6 CFU/ml (Colony Forming Units) of bacteria in MH medium. The final concentration of the molecule to be tested must be 100 or 128 μg/ml. […] Ampicillin is used as a positive control and the same volume of DMSO as that used to introduce the molecule (generally 2 to 5 μl) as a negative control.
The experiments are repeated three times.

[4] = test system: KB (human mouth carcinoma); assay: In vitro cytotoxicity on KB cells; format: cell-based
Method: as §2

[5] = In vitro cytotoxicity on Vero cells; format: cell-based; settings: monkey
Method: as §2

[6] = HCT116 cells (human colon tumour)
[7] = ATCC25923, 18 h, read-out: MIC / Antibacterial Activity (AA)
[8] = Vero cells (monkey kidney), concentration of 10^−5 M, read-out: Average cytotoxicity (% inhibition), Vero cells
[9] = ATCC25923, compound alone, lowest concentration allowing no growth after 18 hours at 37° C., 10^6 CFU/ml, read-out: MIC / Antibacterial Activity (AA)
[10] = concentration of 10^−5 M, read-out: Average cytotoxicity (% inhibition), Vero cells

In the case of `COc1cc(CN(O)C(CNC(=O)OC(C)(C)C)c2c[nH]c3ccc(Br)cc23)cc(OC)c1` (centres unmarked) [(10)], the “MIC (μg/ml) of compound in the presence of ciprofloxacin at 4 μg/ml (c/4)” value (from here on “MIC (μg/ml) of compound in the presence … (c/4)”) [1] is reported as 8 µg/mL.
For `CC(C)(C)OC(=O)NCC(c1c[nH]c2ccc(Br)cc12)[N+]([O-])=Cc1ccccc1` (centres unmarked) [(20 bis)], the “MIC (μg/ml) of compound in the presence … (c/4)” value [1] was 1 µg/mL and the “MIC (μg/ml) of compound in the presence of ciprofloxacin at 8 μg/ml (c/2)” value (from here on “MIC (μg/ml) of compound in the presence … (c/2)”) [1] was 1 µg/mL.
In the case of `COc1ccc(/C=[N+](\[O-])C(CNC(=O)OC(C)(C)C)c2c[nH]c3ccc(Br)cc23)cc1` (centres unmarked) [(20)], the “MIC (μg/ml) of compound in the presence … (c/4)” value [1] is reported as 3 µg/mL and the “MIC (μg/ml) of compound in the presence … (c/2)” value [1] is reported as under 3 µg/mL.
With `CC(C)(C)OC(=O)NCC(NO)c1c[nH]c2ccc(Br)cc12` (centres unmarked) [(21), 1-N-(hydroxy)amino-2-[N′-(tert-butoxycarbonyl)amino]-1-(5′-bromo-3′-indolyl) ethane] the cytotoxicity [2, 6] was 28%, the MIC [3, 7] was 50 µg/mL (≈ 135 µM) and the “Average cytotoxicity (% inhibition), KB cells” value ([4]; concentration of 10^−5 M) was 0%. It also gave a cytotoxicity [5, 8] of 11%.
For `CC(C)(C)OC(=O)NCC(NO)c1c[nH]c2cc(Br)ccc12` (centres unmarked) [(22)], the cytotoxicity [2, 6] was 37%, the MIC [3, 7] was 50 µg/mL (≈ 135 µM) and the “Average cytotoxicity (% inhibition), KB cells” value ([4]; concentration of 10^−5 M) was 0%. The cytotoxicity [5, 8] was 22%.
With `CC(C)(C)OC(=O)NCC(N)c1c[nH]c2ccccc12` (centres unmarked) [(23)] the cytotoxicity [2, 6] was 5%, the “MIC (μg/ml) of compound in the presence … (c/2)” value [1] was 4 µg/mL and the “Average cytotoxicity (% inhibition), KB cells” value ([4]; concentration of 10^−5 M) was 2%. The cytotoxicity [5, 8] was 11%.
For `COc1ccc2[nH]cc(C(N)CNC(=O)OC(C)(C)C)c2c1` (centres unmarked) [(24), 1-amino-[2-N′-(tert-butoxycarbonyl)amino]-1-(5′-methoxy-3′-indolyl) ethane], the cytotoxicity [2, 6] was 13%, the MIC ([3]; ATCC25923) was at most 10 µg/mL and the “MIC (μg/ml) of compound in the presence … (c/2)” value [1] was 4 µg/mL. For the same compound, the “Average cytotoxicity (% inhibition), KB cells” value ([4]; concentration of 10^−5 M) was 2% and the cytotoxicity [5, 8] was 12%.
For `CC(C)(C)OC(=O)NCC(N)c1c[nH]c2ccc(Br)cc12` (centres unmarked) [(25), 1-amino-2-[N′-(tert-butoxycarbonyl)amino]-1-(5′-bromo-3′-indolyl) ethane], the MIC [3, 7] was 25 µg/mL (≈ 70.6 µM).
`CC(C)(C)OC(=O)NCC(N)c1c[nH]c2cc(Br)ccc12` (centres unmarked) [(26)] showed an MIC [3, 7] of 25 µg/mL (≈ 70.6 µM).
With `Cl.Cl.NCC(N)c1c[nH]c2ccc(Br)cc12` (centres unmarked) [(27), 1,2-diamino-1-(5′-bromo-3′-indolyl)ethane dihydrochloride] the cytotoxicity [2] was 26%, the MIC [3, 9] was 25 µg/mL and the “Average cytotoxicity (% inhibition), KB cells” value ([4]; concentration of 10^−5 M) was 0%. It also gave a cytotoxicity [5, 10] of 14%.
Work on `NCC(N)c1c[nH]c2cc(Br)ccc12` (centres unmarked) [(28)] yielded an MIC [3, 9] of 25 µg/mL (≈ 98.4 µM).
With `COc1ccc2c(C(N)CN)c[nH]c2c1` (centres unmarked) [(31)] the MIC [3, 9] was 64 µg/mL (≈ 312 µM), the “Average cytotoxicity (% inhibition), KB cells” value ([4]; human) was 41% and the cytotoxicity [5] was 27%.
For `Cl.Cl.NCC(NO)c1c[nH]c2ccc(Br)cc12` (centres unmarked) [(32), 1-(N-hydroxy)-1,2-diamino-1-(5′-bromo-3′-indolyl)ethane dihydrochloride], the MIC [3, 9] was 3 µg/mL, the “Average cytotoxicity (% inhibition), KB cells” value ([4]; concentration of 10^−5 M) was 23% and the cytotoxicity [5, 10] was 20%.
For `Cl.Cl.NCC(NO)c1c[nH]c2cc(Br)ccc12` (centres unmarked) [(33)], the cytotoxicity [2] was 37%, the MIC [3, 9] was 6 µg/mL and the “Average cytotoxicity (% inhibition), KB cells” value ([4]; concentration of 10^−5 M) was 14%. It also gave a cytotoxicity [5, 10] of 31%.
For `CC(C)(C)OC(=O)NCC(NC(=O)OC(C)(C)C)c1c[nH]c2cc(Br)ccc12` (centres unmarked) [(36)], the “MIC (μg/ml) of compound in the presence … (c/4)” value [1] was 8 µg/mL.
With `CC(c1c[nH]c2ccccc12)N(O)Cc1ccccc1` (centres unmarked) [(37)] the “MIC (μg/ml) of compound in the presence … (c/4)” value [1] was over 8 µg/mL and the “MIC (μg/ml) of compound in the presence … (c/2)” value [1] was over 8 µg/mL.
For `COc1ccc2[nH]cc(C(C)N(O)Cc3ccccc3)c2c1` (centres unmarked) [(38)], the cytotoxicity [2, 6] was 15%, the “MIC (μg/ml) of compound in the presence … (c/2)” value [1] was over 8 µg/mL and the “Average cytotoxicity (% inhibition), KB cells” value ([4]; concentration of 10^−5 M) was 0%. It also gave a cytotoxicity [5, 8] of 5%.
In the case of `COc1ccc(CN(O)C(CC(C)C)c2c[nH]c3ccccc23)c(OC)c1` (centres unmarked) [(40)], the cytotoxicity [2, 6] is reported as 46%, the “MIC (μg/ml) of compound in the presence … (c/2)” value [1] is reported as over 8 µg/mL and the “Average cytotoxicity (% inhibition), KB cells” value ([4]; concentration of 10^−5 M) is reported as 13%. For the same compound, the cytotoxicity [5, 8] was 32%.
